Laboratory results published in US8173645B2 (Takeda San Diego, Inc., priority 2007, dated 2012).

Biological target: T1, glucokinase (GK), residues 12-465 of the human enzyme (Homo sapiens, UniProt P35557)
T1 construct: I.D. No. 1 corresponds to residues 12-465 of glucokinase; made in house; host or cells: E. coli DH10b-Tlr
T1 sequence (P35557 with tags, fused parts or gaps isoform P35557-2): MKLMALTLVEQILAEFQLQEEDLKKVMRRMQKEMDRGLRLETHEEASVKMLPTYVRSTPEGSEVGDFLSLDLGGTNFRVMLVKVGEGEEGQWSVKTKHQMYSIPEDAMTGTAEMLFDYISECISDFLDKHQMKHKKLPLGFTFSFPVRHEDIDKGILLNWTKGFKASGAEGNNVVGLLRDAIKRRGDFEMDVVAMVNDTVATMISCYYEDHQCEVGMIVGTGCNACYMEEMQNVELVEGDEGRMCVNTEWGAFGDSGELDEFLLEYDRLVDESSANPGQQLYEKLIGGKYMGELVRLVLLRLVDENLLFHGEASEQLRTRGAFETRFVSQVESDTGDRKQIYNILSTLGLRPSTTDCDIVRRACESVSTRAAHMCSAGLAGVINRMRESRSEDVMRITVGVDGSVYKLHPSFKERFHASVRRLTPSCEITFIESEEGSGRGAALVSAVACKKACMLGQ
Test: Enzymatic glucokinase activity assay (KinaseGlo luminescence, ATP consumption)
Assay type: biochemical
Settings: 5 μM ATP, 5 mM Glucose; for EC50: GK activation, Kact = concentration giving 50% of the maximal increase in GK activity, read-out: pKact; for Emax: calculated maximal gain in GK enzyme activity at a saturating concentration of the compound, read-out: % ACTmax
How it was run: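 C-terminally FLAG-tagged enzyme expressed in E. coli and purified. Reaction: 25 mM Hepes pH 7.2, 25 mM NaCl, 10 mM MgCl2, 0.01% Brij35, 1 mM DTT, 5 μM ATP, 5 mM glucose, 2% DMSO, 60 min at room temperature. Remaining ATP was read by luciferase luminescence; pKact and % ACTmax came from nonlinear fits of 11-point 2-fold dilutions.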

Compound | EC50 [nM] | Emax [%]
CS(=O)(=O)N1CCN([C@@H](CC2CCCCC2)C(=O)Nc2nccs2)C(=O)C1 [Example 1, (S)-3-cyclohexyl-2-(4-(methylsulfonyl)-2-oxopiperazin-1-yl)-N-(thiazol-2-yl)propanamide] | 1580 to 2510 | 74.1 to 97
N#Cc1ccc(S(=O)(=O)N2CCN([C@@H](CC3CCCCC3)C(=O)Nc3nccs3)C(=O)C2)cc1 [Example 66, (S)-2-(4-(4-cyanophenylsulfonyl)-2-oxopiperazin-1-yl)-3-cyclohexyl-N-(thiazol-2-yl)propanamide] | 1580 to 2510 | 74.1 to 97
N#Cc1ccc(NC(=O)N2CCN([C@@H](CC3CCCCC3)C(=O)Nc3nccs3)C(=O)C2)cc1 [Example 132, (S)-N-(4-cyanophenyl)-4-(3-cyclohexyl-1-oxo-1-(thiazol-2-ylamino)propan-2-yl)-3-oxopiperazine-1-carboxamide] | ≥ 3160 | ≤ 74
COc1ccc(C)cc1S(=O)(=O)N1CCN([C@@H](CC2CCCCC2)C(=O)Nc2nccs2)C(=O)C1 [Example 95, (S)-3-cyclohexyl-2-(4-(2-methoxy-5-methylphenylsulfonyl)-2-oxopiperazin-1-yl)-N-(thiazol-2-yl)propanamide] | 794 to 1260 | ≥ 119
COc1ccc(S(=O)(=O)N2CCN([C@@H](CC3CCCCC3)C(=O)Nc3nccs3)C(=O)C2)cc1F [Example 99, (S)-3-cyclohexyl-2-(4-(3-fluoro-4-methoxyphenylsulfonyl)-2-oxopiperazin-1-yl)-N-(thiazol-2-yl)propanamide] | 794 to 1260 | 108 to 119
O=C(Nc1nccs1)[C@H](CC1CCCCC1)N1CCN(S(=O)(=O)CCC(F)(F)F)CC1=O [Example 100, (S)-3-cyclohexyl-2-(2-oxo-4-(3,3,3-trifluoropropylsulfonyl)piperazin-1-yl)-N-(thiazol-2-yl)propanamide] | 794 to 1260 | ≥ 119
O=C(Nc1nccs1)[C@H](CC1CCCCC1)N1CCN(S(=O)(=O)c2ccc(C(F)(F)F)cc2)CC1=O [Example 55, (S)-3-cyclohexyl-2-(2-oxo-4-(4-(trifluoromethyl)phenylsulfonyl)piperazin-1-yl)N-(thiazol-2-yl)propanamide] | 794 to 1260 | ≤ 74
O=C(Nc1nccs1)[C@H](CC1CCCCC1)N1CCN(C(=S)Nc2ccc(Oc3ccccc3)cc2)CC1=O [Example 127, (S)-3-cyclohexyl-2-(2-oxo-4-(4-phenoxyphenylcarbamothioyl)piperazin-1-yl)-N-(thiazol-2-yl)propanamide] | 1580 to 2510 | ≤ 74
O=C(Nc1nccs1)[C@H](CC1CCCCC1)N1CCN(C(=S)NCc2cccs2)CC1=O [Example 123, (S)-3-cyclohexyl-2-(2-oxo-4-(thiophen-2-ylmethylcarbamothioyl)piperazin-1-yl)-N-(thiazol-2-yl)propanamide] | 1580 to 2510 | 108 to 119
O=C(Nc1nccs1)[C@H](CC1CCCCC1)N1CCN(S(=O)(=O)c2cc(F)cc(F)c2)CC1=O [Example 105, (S)-3-cyclohexyl-2-(4-(3,5-difluorophenylsulfonyl)-2-oxopiperazin-1-yl)-N-(thiazol-2-yl)propanamide] | ≤ 631 | 97.1 to 107
Cc1nc(S(=O)(=O)N2CCN([C@@H](CC3CCCCC3)C(=O)Nc3nccs3)C(=O)C2)cn1C [Example 48, (S)-3-cyclohexyl-2-(4-(1,2-dimethyl-1H-imidazol-4-ylsulfonyl)-2-oxopiperazin-1-yl)-N-(thiazol-2-yl)propanamide] | 794 to 1260 | 108 to 119
O=C(Nc1nccs1)[C@H](CC1CCCCC1)N1CCN(S(=O)(=O)Cc2cccc(Cl)c2)CC1=O [Example 63, (S)-2-(4-(3-chlorobenzylsulfonyl)-2-oxopiperazin-1-yl)-3-cyclohexyl-N-(thiazol-2-yl)propanamide] | 1580 to 2510 | 108 to 119

Further lines, results first:

EC50 [nM] | Emax [%] | Compound
≤ 631 | 74.1 to 97 | O=C(Nc1nccs1)[C@H](CC1CCCCC1)N1CCN(S(=O)(=O)c2ccc(Oc3ccccn3)cc2)CC1=O [Example 207, (S)-3-cyclohexyl-2-(2-oxo-4-(4-(pyridin-2-yloxy)phenylsulfonyl)piperazin-1-yl)-N-(thiazol-2-yl)propanamide]
≥ 3160 | 74.1 to 97 | COC(=O)c1ccc(S(=O)(=O)N2CCN([C@@H](CC3CCCCC3)C(=O)Nc3nccs3)C(=O)C2)o1 [Example 158, (S)-methyl 5-(4-(3-cyclohexyl-1-oxo-1-(thiazol-2-ylamino)propan-2-yl)-3-oxopiperazin-1-ylsulfonyl)furan-2-carboxylate]
≤ 631 | 108 to 119 | Cc1ccc(S(=O)(=O)N2CCN([C@@H](CC3CCCCC3)C(=O)Nc3nccs3)C(=O)C2)cc1F [Example 189, (S)-3-cyclohexyl-2-(4-(3-fluoro-4-methylphenylsulfonyl)-2-oxopiperazin-1-yl)-N-(thiazol-2-yl)propanamide]
1580 to 2510 | 97.1 to 107 | CNC(=O)Nc1ccc(S(=O)(=O)N2CCN([C@@H](CC3CCCCC3)C(=O)Nc3nccs3)C(=O)C2)cc1Cl [Example 214, (S)-2-(4-(3-chloro-4-(3-methylureido)phenylsulfonyl)-2-oxopiperazin-1-yl)-3-cyclohexyl-N-(thiazol-2-yl)propanamide]
1580 to 2510 | ≤ 74 | Cc1c(S(=O)(=O)N2CCN([C@@H](CC3CCCCC3)C(=O)Nc3nccs3)C(=O)C2)cnn1-c1ccccc1 [Example 163, (S)-3-cyclohexyl-2-(4-(5-methyl-1-phenyl-1H-pyrazol-4-ylsulfonyl)-2-oxopiperazin-1-yl)-N-(thiazol-2-yl)propanamide]
≥ 3160 | ≤ 74 | O=C(Nc1nccs1)[C@H](CC1CCCCC1)N1CCN(C(=O)Nc2ccc(C(F)(F)F)cc2)CC1=O [Example 142, (S)-4-(3-cyclohexyl-1-oxo-1-(thiazol-2-ylamino)propan-2-yl)-3-oxo-N-(4-(trifluoromethyl)phenyl)piperazine-1-carboxamide]
794 to 1260 | 108 to 119 | O=C(Nc1ncc(Cl)s1)C(CC1CCOCC1)N1CCN(S(=O)(=O)c2cccc(F)c2)CC1=O (stereo not drawn) [Example 147, N-(5-chlorothiazol-2-yl)-2-(4-(3-fluorophenylsulfonyl)-2-oxopiperazin-1-yl)-3-(tetrahydro-2H-pyran-4-yl)propanamide]
≤ 631 | 108 to 119 | Cc1cc(S(=O)(=O)N2CCN([C@@H](CC3CCCCC3)C(=O)Nc3nccs3)C(=O)C2)c(C)o1 [Example 181, (S)-3-cyclohexyl-2-(4-(2,5-dimethylfuran-3-ylsulfonyl)-2-oxopiperazin-1-yl)-N-(thiazol-2-yl)propanamide]
1580 to 2510 | 74.1 to 97 | O=C(Nc1nccs1)[C@H](CC1CCCCC1)N1CCN(S(=O)(=O)c2ccc(-n3cccn3)cc2)CC1=O [Example 215, (S)-2-(4-(4-(1H-pyrazol-1-yl)phenylsulfonyl)-2-oxopiperazin-1-yl)-3-cyclohexyl-N-(thiazol-2-yl)propanamide]
1580 to 2510 | ≤ 74 | COC(=O)c1cc(C)c(S(=O)(=O)N2CCN([C@@H](CC3CCCCC3)C(=O)Nc3nccs3)C(=O)C2)s1 [Example 157, (S)-methyl 5-(4-(3-cyclohexyl-1-oxo-1-(thiazol-2-ylamino)propan-2-yl)-3-oxopiperazin-1-ylsulfonyl)-4-methylthiophene-2-carboxylate]
1580 to 2510 | 74.1 to 97 | O=C(Nc1nccs1)[C@H](CC1CCCCC1)N1CCN(S(=O)(=O)c2ccc(Br)cc2)CC1=O [Example 204, (S)-2-(4-(4-bromophenylsulfonyl)-2-oxopiperazin-1-yl)-3-cyclohexyl-N-(thiazol-2-yl)propanamide]
1580 to 2510 | 108 to 119 | Cc1ccc(S(=O)(=O)N2CCN([C@@H](CC3CCCCC3)C(=O)Nc3nccs3)C(=O)C2)cc1 [Example 202, (S)-3-cyclohexyl-2-(2-oxo-4-tosylpiperazin-1-yl)N-(thiazol-2-yl)propanamide]
794 to 1260 | 97.1 to 107 | CCN(CC)CCCNC(=S)N1CCN([C@@H](CC2CCCCC2)C(=O)Nc2nccs2)C(=O)C1 [Example 133, (S)-3-cyclohexyl-2-(4-(3-(diethylamino)propylcarbamothioyl)-2-oxopiperazin-1-yl)-N-(thiazol-2-yl)propanamide]
1580 to 2510 | ≤ 74 | O=C(Nc1nccs1)[C@H](CC1CCCCC1)N1CCN(S(=O)(=O)Cc2ccc(Cl)c(Cl)c2)CC1=O [Example 211, (S)-3-cyclohexyl-2-(4-(3,4-dichlorobenzylsulfonyl)-2-oxopiperazin-1-yl)-N-(thiazol-2-yl)propanamide]
794 to 1260 | ≤ 74 | O=C(Nc1nccs1)[C@H](CC1CCCCC1)N1CCN(S(=O)(=O)c2ccc(Cl)c(Cl)c2Cl)CC1=O [Example 220, (S)-3-cyclohexyl-2-(2-oxo-4-(2,3,4-trichlorophenylsulfonyl)piperazin-1-yl)-N-(thiazol-2-yl)propanamide]
